{
  "source": "paper PMC5970065",
  "about": "(Biochimica et biophysica acta, 2018)",
  "biological_target": "myeloperoxidase (MPO) (Homo sapiens, UniProt P05164)",
  "sequence (P05164 165-273)": "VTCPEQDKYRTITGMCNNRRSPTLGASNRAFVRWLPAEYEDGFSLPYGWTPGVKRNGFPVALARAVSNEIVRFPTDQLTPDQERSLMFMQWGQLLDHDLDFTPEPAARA",
  "sequence (P05164 279-745)": "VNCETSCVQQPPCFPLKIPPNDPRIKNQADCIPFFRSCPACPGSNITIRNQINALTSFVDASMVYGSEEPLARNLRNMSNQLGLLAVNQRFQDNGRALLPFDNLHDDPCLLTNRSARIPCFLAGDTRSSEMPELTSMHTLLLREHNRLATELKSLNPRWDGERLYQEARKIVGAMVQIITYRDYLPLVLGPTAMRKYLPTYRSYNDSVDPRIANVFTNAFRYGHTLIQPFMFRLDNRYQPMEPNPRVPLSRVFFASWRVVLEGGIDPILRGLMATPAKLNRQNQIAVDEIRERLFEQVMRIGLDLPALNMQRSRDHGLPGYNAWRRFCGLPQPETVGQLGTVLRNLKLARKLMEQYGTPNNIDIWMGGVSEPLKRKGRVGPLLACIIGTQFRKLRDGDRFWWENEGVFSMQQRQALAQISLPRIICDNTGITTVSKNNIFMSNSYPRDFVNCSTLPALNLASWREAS",
  "type": "biochemical",
  "note": "pIC50: −log10 of the molar value.",
  "data": [
    {"compound": "COc1cc(CC(CO[C@@H]2O[C@H](CO)[C@@H](O)[C@H](O)[C@H]2O)C(CO[C@@H]2O[C@H](CO)[C@@H](O)[C@H](O)[C@H]2O)Cc2ccc(O)c(OC)c2)ccc1O", "note": "(stereo partly shown) [LGM2605]", "values": [
      {"measurement": "pIC50", "value": 4.20}
    ]}
  ]
}
